Measured values reported in PubChem BioAssay AID328 (DTP/NCI, 2004).
Values joined by “and” are separate entries in the source; they are usually repeats but may differ in a detail not shown here. Equal values may be shown once. Inconclusive results and toxic doses are left out.

Tested on: BDF1 mice, P388 leukemia ip, median survival T/C
Assay: NCI In Vivo Anticancer Drug Screen. Data for tumor model P388 Leukemia (intraperitoneal) in B6D2F1 (BDF1) mice
Conditions: endpoint: median survival time, higher = longer survival
In short: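 Reported as T/C, where T is the survival measurement in dosed animals and C the same measurement in vehicle controls.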

[1] = dose: 100.0 mg/kg/injection, schedule: Q01DX009 (ip), vehicle: saline with Tween-80
[2] = dose: 200.0 mg/kg/injection, schedule: Q01DX009 (ip), vehicle: saline with Tween-80
[3] = dose: 400.0 mg/kg/injection, schedule: Q01DX009 (ip), vehicle: saline with Tween-80
[4] = dose: 400.0 mg/kg/injection, schedule: Q04DX003 (ip), vehicle: saline with Tween-80
[5] = dose: 60.0 mg/kg/injection, schedule: Q01DX009 (ip), vehicle: saline with Tween-80
[6] = dose: 100.0 mg/kg/injection, schedule: Q04DX003 (ip), vehicle: saline with Tween-80
[7] = dose: 200.0 mg/kg/injection, schedule: Q04DX003 (ip), vehicle: saline with Tween-80
[8] = dose: 100.0 mg/kg/injection, schedule: Q04DX003 (ip), vehicle: Klucel (hydroxypropylcellulose) (HPC)
[9] = dose: 200.0 mg/kg/injection, schedule: Q04DX003 (ip), vehicle: Klucel (hydroxypropylcellulose) (HPC)

For `CC(C)=CCC(OC(=O)C=C(C)C)C1=CC(=O)c2c(O)ccc(O)c2C1=O` (stereo not given), the T/C (dose: 1.25 mg/kg/injection, schedule: Q01DX009 (ip), vehicle: carboxymethylcellulose (CMC)) was 100 % of control, the T/C (dose: 2.5 mg/kg/injection, schedule: Q01DX009 (ip), vehicle: carboxymethylcellulose (CMC)) was 95 % of control and the T/C (dose: 3.12 mg/kg/injection, schedule: Q01DX009 (ip), vehicle: water) was 118 % of control. The T/C (dose: 6.25 mg/kg/injection, schedule: Q01DX009 (ip), vehicle: water) was 113 % of control, the T/C (dose: 6.25 mg/kg/injection, schedule: Q04DX003 (ip), vehicle: water) was 122 % of control and the T/C (dose: 12.5 mg/kg/injection, schedule: Q04DX003 (ip), vehicle: water) was 122 % of control.
In the case of `COC(=O)c1ccc(COc2ccc([N+](=O)[O-])cc2Cl)cc1`, the T/C (dose: 44.0 mg/kg/injection, schedule: Q01DX009 (ip), vehicle: saline with Tween-80) is reported as 90 % of control, the T/C (dose: 66.0 mg/kg/injection, schedule: Q01DX009 (ip), vehicle: saline with Tween-80) is reported as 90 % of control and the T/C [1] is reported as 90 % of control. The T/C (dose: 150.0 mg/kg/injection, schedule: Q01DX009 (ip), vehicle: saline with Tween-80) was 86 % of control, the T/C (dose: 176.0 mg/kg/injection, schedule: Q04DX003 (ip), vehicle: saline with Tween-80) was 100 % of control and the T/C [2] was 115 % of control. The T/C (dose: 264.0 mg/kg/injection, schedule: Q04DX003 (ip), vehicle: saline with Tween-80) was 100 % of control, the T/C [3] was 105 % of control and the T/C [4] was 90 % of control.
For `COc1ccc(C2=CC(c3ccc(OC)c(OC)c3)c3c(c4ccccc4oc3=O)O2)cc1OC` (stereo not given), the T/C (dose: 12.5 mg/kg/injection, schedule: Q01DX009 (ip), vehicle: water) was 98 % of control, the T/C (dose: 25.0 mg/kg/injection, schedule: Q01DX009 (ip), vehicle: water) was 100 % of control and the T/C (dose: 25.0 mg/kg/injection, schedule: Q04DX003 (ip), vehicle: water) was 97 % of control. The T/C (dose: 50.0 mg/kg/injection, schedule: Q01DX009 (ip), vehicle: water) was 97 % of control, the T/C (dose: 50.0 mg/kg/injection, schedule: Q04DX003 (ip), vehicle: water) was 94 % of control and the T/C (dose: 100.0 mg/kg/injection, schedule: Q01DX009 (ip), vehicle: water) was 96 % of control and 97 % of control. The T/C (dose: 200.0 mg/kg/injection, schedule: Q04DX003 (ip), vehicle: water) was 97 % of control, the T/C (dose: 400.0 mg/kg/injection, schedule: Q01DX009 (ip), vehicle: water) was 106 % of control and the T/C (dose: 400.0 mg/kg/injection, schedule: Q04DX003 (ip), vehicle: water) was 97 % of control.
With `CCC1CC2CCC(c3cc4c(cc3OC)N(C)C3C(O)(C(=O)OC)C(OC(C)=O)C5(CC)C=CCN6CCC43C65)c3[nH]c4ccccc4c3CCN(C1)C2` (stereo not given) the T/C (dose: 0.03 mg/kg/injection, schedule: Q01DX010 (ip), vehicle: saline) was 90 % of control, the T/C (dose: 0.06 mg/kg/injection, schedule: Q01DX010 (ip), vehicle: saline) was 100 % of control and the T/C (dose: 0.13 mg/kg/injection, schedule: Q01DX010 (ip), vehicle: saline) was 90 % of control. The T/C (dose: 0.25 mg/kg/injection, schedule: Q01DX010 (ip), vehicle: saline) was 100 % of control and the T/C (dose: 0.5 mg/kg/injection, schedule: Q01DX010 (ip), vehicle: saline) was 95 % of control.
With `CC(=O)OCC(=O)[C@@]1(O)CC[C@H]2[C@@H]3C[C@H](F)C4=CC(=O)CC[C@]4(C)[C@H]3[C@@H](O)C[C@@]21C` the T/C (dose: 12.5 mg/kg/injection, schedule: Q01DX009 (ip), vehicle: saline with Tween-80) was 109 % of control, the T/C (dose: 25.0 mg/kg/injection, schedule: Q01DX009 (ip), vehicle: saline with Tween-80) was 118 % of control and the T/C (dose: 50.0 mg/kg/injection, schedule: Q01DX009 (ip), vehicle: saline with Tween-80) was 118 % of control.
With `CCCCN(CCCC)c1ccc([N+](=O)[O-])c2no[n+]([O-])c12` the T/C (dose: 15.0 mg/kg/injection, schedule: Q01DX009 (ip), vehicle: saline with Tween-80) was 96 % of control, the T/C (dose: 30.0 mg/kg/injection, schedule: Q01DX009 (ip), vehicle: saline with Tween-80) was 92 % of control and the T/C [5] was 91 % of control.
`CC(=O)n1cc(C2CC(=O)OC3=C2C(=O)CCC3)c2ccccc21` (stereo not given) was tested, and the T/C [1] was 94 % of control, the T/C [6] was 98 % of control and the T/C [2] was 100 % of control. For the same compound, the T/C [7] was 93 % of control, the T/C [3] was 102 % of control and the T/C [4] was 93 % of control.
For `Cc1ccc(CCCCCCCCCCCC(=O)O)cc1`, the T/C [1] was 96 % of control, the T/C [6] was 95 % of control and the T/C [2] was 92 % of control. For the same compound, the T/C [7] was 100 % of control, the T/C [3] was 107 % of control and the T/C [4] was 110 % of control.
`COC(=O)Nc1nc2ccc(C(=O)c3cccs3)cc2[nH]1` was tested, and the T/C (dose: 20.0 mg/kg/injection, schedule: Q01DX009 (ip), vehicle: saline with Tween-80) was 117 % of control, the T/C (dose: 21.6 mg/kg/injection, schedule: Q04DX003 (ip), vehicle: other) was 167 % of control and the T/C (dose: 22.0 mg/kg/injection, schedule: Q04DX003 (ip), vehicle: other) was 153 % of control. The T/C (dose: 36.0 mg/kg/injection, schedule: Q04DX003 (ip), vehicle: other) was 199 % of control, the T/C (dose: 40.0 mg/kg/injection, schedule: Q01DX009 (ip), vehicle: saline with Tween-80) was 183 % of control and the T/C (dose: 50.0 mg/kg/injection, schedule: Q04DX003 (ip), vehicle: Klucel (hydroxypropylcellulose) (HPC)) was 163 % of control and 173 % of control. For the same compound, the T/C [5] was 225 % of control, the T/C (dose: 60.0 mg/kg/injection, schedule: Q04DX003 (ip), vehicle: other) was 274 % of control and the T/C (dose: 75.0 mg/kg/injection, schedule: Q04DX003 (ip), vehicle: Klucel (hydroxypropylcellulose) (HPC)) was 173 % of control and 175 % of control. The T/C (dose: 75.0 mg/kg/injection, schedule: Q04DX003 (ip), vehicle: saline with Tween-80) was 193 % of control and the T/C [8] was 165 % of control and 184 % of control.
In the case of `NC(=O)c1ccc(C(F)(F)F)cc1O`, the T/C [8] is reported as 90 % of control and the T/C [9] is reported as 90 % of control.
In the case of `Cc1ccc(/C=C2\CC(C)(C)c3ccccc3C2=O)cc1`, the T/C (dose: 65.0 mg/kg/injection, schedule: Q01DX009 (ip), vehicle: Klucel (hydroxypropylcellulose) (HPC)) is reported as 90 % of control, the T/C (dose: 100.0 mg/kg/injection, schedule: Q01DX009 (ip), vehicle: Klucel (hydroxypropylcellulose) (HPC)) is reported as 87 % of control and 95 % of control and the T/C (dose: 400.0 mg/kg/injection, schedule: Q01DX009 (ip), vehicle: Klucel (hydroxypropylcellulose) (HPC)) is reported as 100 % of control.
For `COC(=O)C(CCSC)NC(=O)CNC(=O)OC(C)(C)C` (stereo not given), the T/C (dose: 50.0 mg/kg/injection, schedule: Q01DX005 (ip), vehicle: saline with Tween-80) was 100 % of control, the T/C (dose: 100.0 mg/kg/injection, schedule: Q01DX005 (ip), vehicle: saline with Tween-80) was 105 % of control and the T/C (dose: 200.0 mg/kg/injection, schedule: Q01DX005 (ip), vehicle: saline with Tween-80) was 102 % of control.
`Oc1ccc(C(O)(c2ccccc2)c2ccc(O)c3ccccc23)c2ccccc12` was tested, and the T/C [1] was 95 % of control, the T/C [2] was 103 % of control and the T/C [3] was 110 % of control.
For `COc1cc(NC(C)CCCN)c2nccc(C)c2c1` (stereo not given), the T/C (dose: 12.5 mg/kg/injection, schedule: Q01DX009 (ip), vehicle: saline) was 101 % of control, the T/C (dose: 25.0 mg/kg/injection, schedule: Q01DX009 (ip), vehicle: saline) was 101 % of control and the T/C (dose: 50.0 mg/kg/injection, schedule: Q01DX009 (ip), vehicle: saline) was 90 % of control and 107 % of control. The T/C (dose: 100.0 mg/kg/injection, schedule: Q01DX009 (ip), vehicle: saline) was 88 % of control.
For `COc1ccccc1C(=O)C(O)c1ccccc1OC` (stereo not given), the T/C [8] was 95 % of control, the T/C [9] was 104 % of control and the T/C (dose: 400.0 mg/kg/injection, schedule: Q04DX003 (ip), vehicle: Klucel (hydroxypropylcellulose) (HPC)) was 108 % of control.
`CC1(C)N=C(N)N=C(N)N1c1ccc(CCCCc2cccc(S(=O)(=O)F)c2)c(Cl)c1` was tested, and the T/C (dose: 1.0 mg/kg/injection, schedule: Q01DX009 (ip), vehicle: saline with Tween-80) was 119 % of control, the T/C (dose: 1.32 mg/kg/injection, schedule: Q01DX009 (ip), vehicle: saline with Tween-80) was 150 % of control and the T/C (dose: 2.0 mg/kg/injection, schedule: Q01DX009 (ip), vehicle: saline with Tween-80) was 150 % of control. For the same compound, the T/C (dose: 3.0 mg/kg/injection, schedule: Q01DX009 (ip), vehicle: saline with Tween-80) was 154 % of control, the T/C (dose: 4.0 mg/kg/injection, schedule: Q01DX009 (ip), vehicle: saline with Tween-80) was 161 % of control and the T/C (dose: 8.0 mg/kg/injection, schedule: Q01DX009 (ip), vehicle: saline with Tween-80) was 161 % of control and 170 % of control. The T/C (dose: 12.0 mg/kg/injection, schedule: Q01DX009 (ip), vehicle: saline with Tween-80) was 170 % of control, the T/C (dose: 12.5 mg/kg/injection, schedule: Q04DX003 (ip), vehicle: saline with Tween-80) was 109 % of control and the T/C (dose: 18.0 mg/kg/injection, schedule: Q01DX009 (ip), vehicle: saline with Tween-80) was 200 % of control.
